US20180235870A1, “TRANSDERMAL FORMULATIONS FOR DELIVERY OF BERBERINE COMPOUNDS, AND THEIR USE IN THE TREATMENT OF BERBERINE-RESPONSIVE DISEASES AND CONDITIONS” (DELIVRA INC., priority 2015, published 2018)
“Also recorded” adds a separate entry of the source. Values belong to the compound of their own block, whether it stands above or below them.

Tests used:
[1] = system: male Zucker rat, a model of type-2 diabetes and metabolic disorder; test: Effect of berberine, metformin and simvastatin on body mass, lipid biomarkers, food and water intake, clinical chemistry (Example 18); type: in vivo, obese male Zucker fa/fa rats; conditions: Zucker rats, Days 0 to 28
Method: All in vivo animal husbandry, treatment regiments, and sample collections were completed by InterVivo. The study was completed using obese male Zucker fa/fa rats (Charles River) at 10 weeks of age. […] Shaving was performed under anaesthesia one day prior to initiation of test article administration. The area was further shaven, as needed, over the course of the dosing period to ensure accurate drug application and absorption. For dosing procedures, animals were restrained and the transdermal test articles applied in a uniform layer over the entire shaved area. The shaved administration area was cleaned daily with paper towel before the subsequent transdermal dose was administered. Animals receiving test articles via oral gavage were restrained, and a ball-tipped gavage needle (18G) attached to a syringe containing the dosing solution was first inserted into the mouth, and then into the stomach. To determine the appropriate depth of insertion of the needle, the position corresponding to the last rib was measured prior to insertion. […] Group A), oral administration of berberine (180 mg/kg/dose; […] Group C), and oral administration of the vehicle (Group D) (Table 19). […] Group F), or with orally-administered metformin (200 mg/kg/dose; Group G). […] On Day 28, the animals were dosed in the morning only, prior to euthanasia and tissue collection. Animal body weights were performed once weekly from Day −34 to −2 and daily from Day −1 to 28. Rats were weighed, and the scales were operated and maintained, according to standard operating procedures. Food and water consumption measurements were taken over a 24 hour period, once weekly, from Days 0 to 28. Blood was collected via tail nick on Day-1 to determine unfasted blood glucose level for group allocation. Whole blood was collected via the saphenous vein or other appropriate route on Days 0, 7, 14, 21 and 28 immediately prior to test article administration. […] On Day 28, subjects were anaesthetized with isoflurane, and whole blood was collected via cardiac puncture 2.5 hours (+/−5 minutes) following treatment administration on this day. […]

[2] = system: male Zucker fa/fa rat, a model of type 2 diabetes and metabolic disorder; test: Efficacy of transdermal berberine alone and in combination with pharmaceuticals in a model of metabolic syndrome (Example 19); type: in vivo, obese male Zucker fa/fa rats; conditions: Zucker fa/fa rats
Method: Fourteen obese male Zucker fa/fa rats at 5 weeks of age were housed for five weeks to the age of 10 weeks. During these five weeks, body weight measurements were taken once a week and once daily health observations were conducted for all animals. […] On Day 28, serum and whole liver was collected. […] Food and water intake measurements were taken once a week during the study period of Day 0 to Day 28. […] A sufficient amount of test article was supplied and formulated. Test article product was administered at a dose of 3.6 g/kg twice a day (e.g. […] Berberine cream was weighed fresh daily at each AM and PM dosing to avoid desiccation of the test article. Daily PO and TD dosing of the test articles took place between the hours of 08:00 to 10:00 and 16:00 to 18:00 for 7 days a week between Day 0 to 27. […] The exact time of dosing (up to the minute) was recorded for each animal on the daily dosing sheets. […] Remaining dosing solutions were stored at 4° C. between dosing periods. […] The animals shaved underwemt gaseous anaesthetic according to SOP ROD28.01 to ensure accuracy and avoid undue stress of the animal. The area was further shaven as needed over the course of the dosing period to ensure accurate drug application and absorption. At dosing, the animals were restrained and the transdermal test articles were applied in a uniform layer over the entire shaved area. […] PTS3028).

[3] = system: PCSK9 expression in HEPG2 cells; test: Berberine signaling in HEPG2: PCSK9 western blot of supernatant; type: cell-based, human; conditions: 24 hours; for expression of PCSK9 in supernatant (western blot): 25 to 3.125 ug/ml, versus negative control
Method: HEPG2 cells were cultured in 24 well plates to confluence in DMEM supplemented with 10% FBS. After reaching confluence, cells were incubated overnight with 0.1% FBS OPTIMEM for serum starvation. After serum starvation the cells were incubated with berberine, DHB, or THB in 0.1% FBS OPTIMEM using the following dose course: 25 ug/ml, 12.5 ug/ml 6.25 ug/ml 3.125 ug/ml for 24 hours. Supernatant was collected after stimulation and western blotted as follows:
(1) Resolved on 12.5% gel.
(3) Blocked with 3% BSA TBST (4) Rabbit anti PCSK9 (Cayman chemicals cat 10007185) at 1/600 in TTBS (5) Wash 3×5 min with TTBS (6) HRP-Goat anti-Rabbit 1/1000 (Cayman chemicals) (7) Wash 3×5 min with TTBS (8) Detection with ECL
Proprotein convertase subtilisin/kexin type 9 (PCSK9) post-transcriptionally downregulates the low-density lipoprotein receptor (LDLR) by binding to the receptor's epidermal growth factor repeat A on the cell surface and shuttling the LDLR to the lysosomes for degradation. […] Previous reports indicate that berberine has lipid lowering effects in both animal models and human trials (Arrigo F. G., Cicero, L., Rovati C. et al., 2007). The signalling effects of berberine, DHB, and THB were evaluated using the human liver cell line HEPG2. PCSK9, an enzyme that acts in cholesterol homeostasis, is expressed in HEPG2 cells and these cells have previously been used as a model of dyslipidemia. PCSK9 binds to LDL receptor causing uptake of LDL and the LDL receptor and targets both molecules for degradation upon internalization. In the absence of PCSK9, LDL and LDL receptor are still internalized, however, LDL receptor is not degraded but instead recycled to the cell surface resulting in more efficient uptake of circulating LDL.

[4] = Stability of synthetic derivatives DHB and THB in solution (UV/VIS); type: physicochemical; conditions: for stability over time (oxidation to berberine): several solvents
From the text: UV/VIS spectrometry is a useful tool for monitoring the conversion of DHB to berberine in solution. Several anti-oxidants and encapsulating agents were combined with DHB in solution to increase stability.

[5] = Solubility testing of berberine and dihydroberberine using various solvents; type: physicochemical
Method: Solubility was determined in a step-wise procedure that involved attempting to dissolve the berberine/DHB in the solvents at relatively high concentrations. […] Then the expected solvent was added to the berberine/DHB. The container was sonicated at RT or at 40C for 30 minutes. The following solvents were tested to dissolve the DHB. Dimethyl sulfoxide (Reagent Grade; […] Lot #STB[…]), and Glycerol tributyrate (Sigma T8626; Lot #BCBQ […]). […] The solubility was visually checked and state of solubility was recorded.

[6] = Plasma concentrations of berberine, berberine glucuronide, simvastatin and simvastatin hydroxy acid in rats (Example 20); type: in vivo; conditions: rats (n=2); oral simvastatin 6 mg/kg/dose
[7] = averaged over the entire experiment

SMILES: CN(C)C(=N)N=C(N)N [Metformin]
HbA1c (in words) [1]: largest reduction in HbA1c | rate of weight gain (grams/day) ([2]; BID, Day 0 to 28, n=2): 3.3 grams/day | overall triglyceride levels (mmol/L+/−SEM) ([2]; averaged for the entire experiment): 15.1 ± 0.4 mmol/L | overall HbA1c level change (mmol/mmol+/−SEM) [2, 7]: 34.3+/−0.4 mmol/mmol | overall average food intake (grams+/−SEM) [2, 7]: 33.4+/−0.7 grams | overall cholesterol level change (mmol/L+/−SEM) [2, 7]: 5.0 ± 0.4 mmol/L | overall average glucose change (%+/−SEM) ([2]; non-fasting glucose, averaged over the entire experiment): 5.9+/−5.9%

oxidation of DHB to berberine on addition of ascorbic acid or cyclodextrin ([4]; UV/VIS): significantly slowed | Dissolving Capability ([5]; Acetone, sonication 40 C.): 25.0 mg/mL | Dissolving Capability ([5]; Acetone, sonication RT): 12.5 mg/mL | Dissolving Capability ([5]; Dimethyl sulfoxide (DMSO), sonication 40 C.): 50.0 mg/mL | Dissolving Capability ([5]; Dimethyl sulfoxide (DMSO), sonication RT): 25.0 mg/mL | Dissolving Capability ([5]; Ethanol, sonication 40 C.): 2.5 mg/mL | Dissolving Capability ([5]; Ethanol, sonication RT): 1.0 mg/mL | Dissolving Capability ([5]; Glycerol tributyrate, sonication 40 C.): 75 to 250 mg/mL | Dissolving Capability ([5]; Glycerol tributyrate, sonication RT): 10 mg/mL | Dissolving Capability ([5]; Hexylene glycol, sonication 40 C.): 1.0 mg/mL | Dissolving Capability ([5]; Hexylene glycol, sonication RT): 0.5 mg/mL | Dissolving Capability ([5]; Isopropyl myristate, sonication 40 C.): 75 to 250 mg/mL | Dissolving Capability ([5]; Isopropyl myristate, sonication RT): 10 mg/mL | Dissolving Capability ([5]; Isosorbid-dimethyl ether 98%, sonication 40 C.): 250 mg/mL | Dissolving Capability ([5]; Isosorbid-dimethyl ether 98%, sonication 40 C., listed as Dihydroberberine): 250 mg/mL | Dissolving Capability ([5]; Isosorbid-dimethyl ether 98%, sonication RT): 25.0 mg/mL | Dissolving Capability ([5]; Mineral oil, sonication 40 C.): 4.0 mg/mL | Dissolving Capability ([5]; Mineral oil, sonication RT): 2.0 mg/mL | Dissolving Capability ([5]; Oleyl alcohol, sonication 40 C., listed as Dihydroberberine): 50 mg/mL | Dissolving Capability ([5]; Oleyl alcohol, sonication 40 C., listed as dihydroberberine): 50.0 mg/mL | Dissolving Capability ([5]; Oleyl alcohol, sonication RT): 12.5 mg/mL | Dissolving Capability ([5]; Propanediol, sonication 40 C.): 2.5 mg/mL | Dissolving Capability ([5]; Propanediol, sonication RT): 1.0 mg/mL | Dissolving Capability ([5]; Trivalin, sonication 40 C.): 5.0 mg/mL | Dissolving Capability ([5]; Trivalin, sonication RT): 2.5 mg/mL | Dissolving Capability ([5]; Water, sonication 40 C.): 1.0 mg/mL | Dissolving Capability ([5]; Water, sonication RT): 0.5 mg/mL
SMILES: COc1ccc2c(c1OC)CN1CCc3cc4c(cc3C1=C2)OCO4 [DHB, dihydroberberine]
concentration down to which expression of PCSK9 was reduced [3]: 6.25 µg/mL | expression of PCSK9 in supernatant (western blot) [3]: down-regulate the expression of PCSK9; also recorded: reduce the expression of PCSK9 | stability over time (oxidation to berberine) [4]: prone to oxidation to provide berberine after a short time

systemic simvastatin concentration [6]: 1.83 ng/mL
SMILES: CCC(C)(C)C(=O)O[C@H]1C[C@@H](C)C=C2C=C[C@H](C)[C@H](CC[C@@H]3C[C@@H](O)CC(=O)O3)[C@H]21 [Simvastatin]

SMILES: COc1ccc2c(c1OC)CN1CCc3cc4c(cc3C1C2)OCO4 (stereo not shown) [THB, tetrahydroberberine]
expression of PCSK9 in supernatant (western blot) [3]: did not affect expression of PCSK9; also recorded: did not appear to reduce expression of PCSK9 | stability over time (oxidation to berberine) [4]: excellent stability in several solvents
